Measurements reported in patent US6046231A, “Use of 4'-bromoflavone in a cancer chemopreventative composition and method” (The Board of Trustees of the University of Illinois, priority 1999, dated 2000).
Entries after “also recorded” stand apart in the source; their conditions may differ. Read-outs that look alike come from different tables or passages of the source.

What was measured:
GST Ya (α class) = experiment: Western blot of GST Ya (α-type) expression in H4IIE cells; type: cell-based, rat
Procedure: (§1) Western Blot Analysis Glutathione S-transferase Expression. Cultured H4IIE rat hepatoma cells were treated with test agent with various concentrations or various time points. […] Cells were harvested using SDS lysis buffer (20 mM Tris-Cl, pH 6.8, containing 0.4% SDS (w/v), 4% glycerol, 0.24 M β-mercaptoethanol, and 0.5% bromphenol) and the lysates were boiled for 5 minutes, then stored at -20° C. An aliquot of lysate was used for protein determination using a bicichoninic acid protein assay kit with BSA as a standard. Equivalent amounts of protein were electrophoresed by SDS-PAGE on precast 12.5% Tris-glycine acrylamide gels (Novex, San Diego, Calif.), then transferred to polyvinylidene difluoride (PDVF) membranes. Nonspecific binding sites were blocked with 10% nonfat dry milk and blotting was performed with goat polyclonal antirat GSTYa (α class) IgG or antirat, GSTYb (μ class) IgG and analyzed by alkaline phosphatase-conjugated antigoat IgG secondary antibody (Oxford Biomed Research, Inc.) and quantified using an AP 20 Alkaline Phosphatase Kit detection system (Oxford Biomed Research, Inc.).
(§2) Induction of Expression of Glutathione S-transferase Ya (α-type) and Yb (μ-type) in Cell Cultures. […] To date, the superfamily of mammalian cytosolic GST isozymes has been defined genetically to consist of four classes; α, μ, π, and θ, which differ in tissue-specificexpression and distribution, as well as substrate specificity. […] Cultured H4IIE cells were treated either with 10 μM of 4'-BF (FIG. 7B) or sulforaphane for 0, 2, 4, 8, 16, 24, and 48 hours for a time-dependent study, or with 0.16, 0.8, 4, 10, 20, and 50 μM of 4'-BF (FIG. 7A) or sulforaphane for 24 hr for a dose-dependent study (FIG. 7A). The expressions of two major detoxification isoforms of GSTs (GST Ya: α-type, and GST Yb: μ-type) mediated by 4'-BF or sulforaphane were investigated in H4EII rat hepatoma cells using Western blotting technique.

[1] = test system: quinone reductase (QR), Hepa 1c1c7 cells; experiment: Quinone reductase (QR) induction in Hepa 1c1c7 cells; type: cell-based, murine
Description: This test was used because the specific activity of QR rises concomitantly with other phase II enzymes in many animal tissues in response to various chemopreventive agents. The study included natural and synthetic B-ring substituted flavones, as well as biosynthetic precursor chalcones and flavanones.
Determination of Quinone Reductase Activity in Cell Cultures. To determine the potency of inducers, Hepa 1c1c7 murine hepatoma cells as described in the Gerhauser publication were placed in 96-well plates at a density of 1×10^4 cells/ml in 200 μl of medium. After a preincubation period of 24 hr, the media were decanted and 190 μl fresh media were added to each well. Ten (10) μl test agents dissolved in 10% DMSO (final concentration of DMSO is 0.5%) with a serial 2-fold dilutions were introduced to each well, and the plates were incubated for an additional 48 hours. Specific QR activity was determined by measuring the NADPH-dependent menadiol-mediated reduction of 3-(4, 5-dimethylthiazo-2-yl)-2,5-diphenyltetrazolium bromide to blue formazan formed per mg protein per minute. Protein was determined in an identical set of test plates by staining with crystal violet. Hepa 1c1c7 cells retain many characteristics of normal issues, particularly the capacity for carcinogen activation and metabolism. They are amenable to precise control of environmental, nutritional, and hormonal factors. […] Induction of QR activity was calculated by comparing the QR specific activity of agent-treated cells with that of solvent-treated cells, and a plot of ratio was generated. CD represents the concentration required to double QR induction. Chemopreventive index (CI) is an indexing value generated by comparing CD with IC50 (concentration for 50% inhibition of cell viability) values.
Induction of Quinone Reductase in Hepa 1c1c7 Cells. […] Modification of the B-ring of chalcones, flavanones, and flavones was hypothesized to induce torsion of the B-ring, and, therefor, simulate out-of-plane distortions characteristic of polycyclic aromatic hydrocarbons, such as DMBA. Induction of QR activity was calculated by comparing the QR specific activity of agent-treated cells with the QR specific activity of solvent-treated cells, and a plot of ratios was generated. CD represents the concentration required for a double fold of induction. CI (Chemopreventive Index) is a value obtained by comparing CD with IC50 (concentration for 50% inhibition of cell viability in […]).

Hepa 1c1c7 cells [2] = experiment: Hepa 1c1c7 cell viability (cytotoxicity); type: cell-based, murine; conditions: Mus musculus, Hepa-1c1c7, read-out: IC50, concentration for 50% inhibition of cell viability
H4IIE rat hepatoma cells = experiment: Toxicity in H4IIE rat hepatoma cells; type: cell-based
[3] = test system: QR XRE-CAT construct, HepG2 cells; experiment: CAT expression in HepG2 cells transfected with QR XRE-CAT; type: cell-based, human cells; rat QR gene; conditions: 10 μM, 48 h
Procedure: (§3) Transcient Transfection Gene Expression Assay. Cultured HepG2 human hepatoma cells were transfected with three plasmid constructs (PDTD-1697CAT, XRE-CAT, ARE-CAT) containing various portions of the 5'-region of the QR gene fused to the CAT gene using the calcium phosphate precipitation method (J. Sambrook et al., Molecular cloning: A Laboratory Handbook, Ed. Chris Nolan, CHS Laboratory Press, 1989). After 4 hours of transfection, the cells were treated with 10% glycerol for 3 minutes and rinsed with PBS and switched to MEM, containing 100 units/ml penicillin G sodium, 100 units/ml streptomycin sulfate, nonessential amino acids, and 1 mM sodium pyruvate (Life Technologies Inc.) supplemented with 10% fetal bovine serum for 12-16 hours recovery. Then, test agents were added to the cells. After 48 hours of treatment with the test agents, cells were harvested with lysis buffer (Boehringer Mannheim Biochemical) and CAT protein expressions were assessed using a CAT ELISA kit (Boehringer Mannheim Biochemical). CAT enzyme expression was normalized for the protein content of each sample. All data were expressed as mean +/- SD. Means were compared using Student's t test with n=4.
(§4) This was further investigated in transient transfection experiments wherein human hepatoma cells were transfected with DNA constructs containing various portions of the 5' upstream promoter region of the QR gene linked to the CAT reporter gene by using the calcium phosphate precipitation method. Construct pDTD-1097CAT contains elements of the rat QR gene connected to the CAT construct gene. […]
(§5) In particular, FIG. 1 illustrates quantitation of CAT expression in HepG2 cells transfected with QR-CAT constructs. […] CAT expression (ng CAT/mg protein) was determined using a CAT ELISA, and the ratio of CAT expression between treated and control cells was calculated (ratio=treated/control).

[4] = test system: quinone reductase (QR), Hepa 1c1c7 cells; conditions: reported comparator value; cited from earlier work
[5] = test system: pDTD-1097CAT construct (QR gene 5'-region), HepG2 cells; experiment: CAT expression in HepG2 cells transfected with pDTD-1097CAT; type: cell-based, human cells; rat QR gene; conditions: 10 μM, 48 h; p<0.0001
Procedure: as §3, with “CAT enzyme expression was normalized for the protein content of each sample.” left out, “Means were compared using Student's t test with n=4.” left out
as §5

GST Yb (μ class) = experiment: Western blot of GST Yb (μ-type) expression in H4IIE cells; type: cell-based, rat
Procedure: as §1, §2

[6] = test system: QR ARE-CAT construct, HepG2 cells; experiment: CAT expression in HepG2 cells transfected with QR ARE-CAT; type: cell-based, human cells; rat QR gene; conditions: 10 μM, 48 h; p<0.0001
Procedure: as §3, §4, §5

Hepa 1c1c7 cells [7] = conditions: comparator value; read-out: IC50 (toxicity), comparison value; cited from earlier work

Row | Structure (SMILES) | maximum induction time, GST Ya (GST Ya (α class); 10 μM, 0-48 h) | maximum induction concentration, GST Ya (GST Ya (α class); 0.16-50 μM, 24 h) | GST Ya (α) induction (GST Ya (α class); H4IIE cells) | CI, chemoprevention index (IC50/CD) ([1]; IC50/CD, 2880 min) | EC (2-fold) ([1]; Mus musculus, Hepa-1c1c7, 48 h, Hepa 1c1c7 cells, 48 h, read-out: CD, concentration to double the specific activity of QR) | IC50 (Hepa 1c1c7 cells [2]) | toxicity in H4IIE cells (H4IIE rat hepatoma cells) | CAT expression, QR XRE-CAT [3] | CD, comparison value [4] | CAT expression, pDTD-1097CAT [5] | maximum induction time, GST Yb (GST Yb (μ class); 10 μM, 0-48 h) | maximum induction concentration, GST Yb (GST Yb (μ class); 0.16-50 μM, 24 h) | GST Yb (μ) induction (GST Yb (μ class); H4IIE cells) | CAT expression, QR ARE-CAT [6] | IC50 (Hepa 1c1c7 cells [7])
1 | C[S+]([O-])CCCCN=C=S (stereo not drawn) [Sulforaphane, sulforaphane, reference compound] | 16 to 24 h | 4 to 10 µM | Time, dose-dependent induction | 26 | 0.43 µM | 11 µM | a declined induction for sulforaphane was observed at a concentration higher than 10 μM due to the toxic effects | not observed | 0.23 µM | significantly (p<0.0001) induced | 16 to 24 h | 4 to 10 µM | Time, dose-dependent induction | significantly (p<0.0001) induced; also recorded: selectively interacted with the ARE | 
2 | O=c1cc(-c2ccccc2)oc2ccc3ccccc3c12 [β-naphthoflavone] |  |  |  |  |  |  |  | significantly (P<0.0001, students t test with n=4) induced | 0.02 to 0.04 µM |  |  |  |  | significantly (P<0.0001, students t test with n=4) induced | 8 µM
